Measurements: patent US20230062100A1, “SUBSTITUTED AMINOQUINOLONES AS DGKALPHA INHIBITORS FOR IMMUNE ACTIVATION” (Bayer Aktiengesellschaft, priority 2019, published 2023)

Biological target: DGKα (Homo sapiens, UniProt P23743)
Test: Human DGKα kinase activity inhibition assay (ADP-Glo)
Type: biochemical
Settings: in vitro human DGKα kinase activity inhibition assay
In short: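 C-terminally FLAG-tagged full-length human DGKα from baculovirus/insect cells (typically ~0.1 nM) phosphorylated 1,2-dioleoyl-sn-glycerol in octyl-β-D-glucopyranoside micelles in MOPS pH 7.4. ADP formed was quantified by ADP-Glo luminescence after 1 h ATP depletion at 22 °C.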

DGKα, sequence (P23743 with tags, fused parts or gaps): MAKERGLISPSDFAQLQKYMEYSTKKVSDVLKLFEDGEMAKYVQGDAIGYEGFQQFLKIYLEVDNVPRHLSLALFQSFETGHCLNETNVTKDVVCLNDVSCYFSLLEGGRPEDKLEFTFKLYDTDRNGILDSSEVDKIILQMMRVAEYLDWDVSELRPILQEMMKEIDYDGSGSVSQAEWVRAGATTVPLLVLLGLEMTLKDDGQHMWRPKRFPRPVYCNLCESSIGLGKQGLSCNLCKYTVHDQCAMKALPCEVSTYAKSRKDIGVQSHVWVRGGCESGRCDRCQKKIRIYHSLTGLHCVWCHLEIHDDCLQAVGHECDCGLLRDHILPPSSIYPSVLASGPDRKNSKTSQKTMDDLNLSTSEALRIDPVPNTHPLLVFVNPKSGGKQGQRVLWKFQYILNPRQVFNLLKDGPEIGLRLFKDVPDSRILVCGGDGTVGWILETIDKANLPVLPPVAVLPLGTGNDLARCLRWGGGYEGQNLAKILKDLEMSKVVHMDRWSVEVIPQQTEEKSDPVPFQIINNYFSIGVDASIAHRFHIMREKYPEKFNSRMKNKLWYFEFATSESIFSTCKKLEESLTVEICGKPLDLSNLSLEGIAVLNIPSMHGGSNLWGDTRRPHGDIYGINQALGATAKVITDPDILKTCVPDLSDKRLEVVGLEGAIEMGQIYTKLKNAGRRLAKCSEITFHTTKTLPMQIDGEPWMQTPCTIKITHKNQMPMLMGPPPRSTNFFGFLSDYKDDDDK

Compound | IC50 [nM]
Cn1c(=O)c(C#N)c(N2CCC(Oc3ccc(OC(F)(F)F)cc3)CC2)c2cccc(Cl)c21 [Example 131, 8-chloro-1-methyl-2-oxo-4-{4-[4-(trifluoromethoxy)phenoxy]piperidin-1-yl}-1,2-dihydroquinoline-3-carbonitrile] | 18
COCCc1ccc2c(N3CCC(Oc4cccc(OC(F)(F)F)c4)CC3)c(C#N)c(=O)n(C)c2c1 [Example 76, 7-(2-methoxyethyl)-1-methyl-2-oxo-4-{4-[3-(trifluoromethoxy)phenoxy]piperidin-1-yl}-1,2-dihydroquinoline-3-carbonitrile] | 6.8
COc1ccc2c(N3CCC(Oc4ccc(OC(F)(F)F)cc4)CC3)c(C#N)c(=O)n(C)c2c1 [Example 71, 7-methoxy-1-methyl-2-oxo-4-{4-[4-(trifluoromethoxy)phenoxy]piperidin-1-yl}-1,2-dihydroquinoline-3-carbonitrile] | 5.7
Cn1c(=O)c(C(N)=O)c(N2CCC(Oc3ccc(OC(F)(F)F)cc3)CC2)c2ccc(N3CCCC3=O)cc21 [Example 96, 1-methyl-2-oxo-7-(2-oxopyrrolidin-1-yl)-4-{4-[4-(trifluoromethoxy)phenoxy]piperidin-1-yl}-1,2-dihydroquinoline-3-carboxamide] | 12
Cn1c(=O)c(C(N)=O)c(N2CCC(Oc3cccc(Cl)c3)CC2)c2ccccc21 [Example 49, 4-[4-(3-chlorophenoxy)piperidin-1-yl]-1-methyl-2-oxo-1,2-dihydroquinoline-3-carboxamide] | 1.7
COc1ccc2c(N3CCC(Sc4ccccc4)CC3)c(C#N)c(=O)n(C)c2c1 [Example 90, 7-methoxy-1-methyl-2-oxo-4-[4-(phenylsulfanyl)piperidin-1-yl]-1,2-dihydroquinoline-3-carbonitrile] | 1.7
Cn1c(=O)c(C#N)c(N2CCC(Oc3ccc(OC(F)(F)F)cc3)CC2)c2ccc(F)cc21 [Example 63, 7-fluoro-1-methyl-2-oxo-4-{4-[4-(trifluoromethoxy)phenoxy]piperidin-1-yl}-1,2-dihydroquinoline-3-carbonitrile] | 12
Cn1c(=O)c(C#N)c(N2CCC(Oc3ccc(OC(F)(F)F)cc3)CC2)c2cc(Cl)ccc21 [Example 157, 6-chloro-1-methyl-2-oxo-4-{4-[4-(trifluoromethoxy)phenoxy]piperidin-1-yl}-1,2-dihydroquinoline-3-carbonitrile] | 1240
Cn1c(=O)c(C#N)c(N2CCC(Oc3ccc(OC(F)(F)F)cc3)CC2)c2ccc(N3CCCC3=O)cc21 [Example 82, 1-methyl-2-oxo-7-(2-oxopyrrolidin-1-yl)-4-{4-[4-(trifluoromethoxy)phenoxy]piperidin-1-yl}-1,2-dihydroquinoline-3-carbonitrile] | 12
Cn1c(=O)c(C(N)=O)c(N2CCC(Oc3ccc(Cl)cc3)CC2)c2ccccc21 [Example 50, 4-[4-(4-chlorophenoxy)piperidin-1-yl]-1-methyl-2-oxo-1,2-dihydroquinoline-3-carboxamide] | 3.1
COc1ccc2c(N3CCC(Oc4ccc(Cl)cc4)CC3)c(C#N)c(=O)n(C)c2c1 [Example 65, 4-[4-(4-chlorophenoxy)piperidin-1-yl]-7-methoxy-1-methyl-2-oxo-1,2-dihydroquinoline-3-carbonitrile] | 7.3
Cn1c(=O)c(C#N)c(N2CCC(C)(Oc3ccc([N+](=O)[O-])cc3)CC2)c2ccccc21 [Example 40, 1-methyl-4-[4-methyl-4-(4-nitrophenoxy)piperidin-1-yl]-2-oxo-1,2-dihydroquinoline-3-carbonitrile] | 11
Cn1c(=O)c(C#N)c(N2CCC(Oc3ccc(F)cc3)CC2)c2ccc(N3CCCC3=O)cc21 [Example 84, 4-[4-(4-fluorophenoxy)piperidin-1-yl]-1-methyl-2-oxo-7-(2-oxopyrrolidin-1-yl)-1,2-dihydroquinoline-3-carbonitrile] | 25
Cn1c(=O)c(C#N)c(N2CCC(C)(Oc3ccc(N)cc3)CC2)c2ccccc21 [Example 41, 4-[4-(4-aminophenoxy)-4-methylpiperidin-1-yl]-1-methyl-2-oxo-1,2-dihydroquinoline-3-carbonitrile] | 173
Cn1c(=O)c(C#N)c(N2CCC(Oc3ccc(OC(F)(F)F)cc3)CC2)c2ccc(Cl)cc21 [Example 64, 7-chloro-1-methyl-2-oxo-4-{4-[4-(trifluoromethoxy)phenoxy]piperidin-1-yl}-1,2-dihydroquinoline-3-carbonitrile] | 16
CCOC(=O)c1ccc(OC2CCN(c3c(C(N)=O)c(=O)n(C)c4ccccc34)CC2)cc1 [Example 51, ethyl 4-{[1-(3-carbamoyl-1-methyl-2-oxo-1,2-dihydroquinolin-4-yl)piperidin-4-yl]oxy}benzoate] | 6.1
COc1cccc(OC2CCN(c3c(C#N)c(=O)n(C)c4ccc(Br)cc34)CC2)c1 [Example 138, 6-bromo-4-[4-(3-methoxyphenoxy)piperidin-1-yl]-1-methyl-2-oxo-1,2-dihydroquinoline-3-carbonitrile] | 1.5

Second part, the compound after the results:

IC50 [nM] | Compound
283 | Cn1ccn(-c2ccc(OC3CCN(c4c(C#N)c(=O)n(C)c5ccccc45)CC3)cc2)c1=O [Example 25, 1-methyl-4-{4-[4-(3-methyl-2-oxo-2,3-dihydro-1H-imidazol-1-yl)phenoxy]piperidin-1-yl}-2-oxo-1,2-dihydroquinoline-3-carbonitrile]
9.1 | Cn1c(=O)c(C#N)c(N2CCC(Oc3cccc(Cl)c3)CC2)c2ccccc21 [Example 9, 4-[4-(3-chlorophenoxy)piperidin-1-yl]-1-methyl-2-oxo-1,2-dihydroquinoline-3-carbonitrile]
1.9 | Cn1c(=O)c(C#N)c(N2CCC(Oc3ccc(F)cc3)CC2)c2cc(Br)ccc21 [Example 137, 6-bromo-4-[4-(4-fluorophenoxy)piperidin-1-yl]-1-methyl-2-oxo-1,2-dihydroquinoline-3-carbonitrile]
1.1 | Cn1c(=O)c(C#N)c(N2CCC(Sc3ccccc3)CC2)c2ccccc21 [Example 53, 1-methyl-2-oxo-4-[4-(phenylsulfanyl)piperidin-1-yl]-1,2-dihydroquinoline-3-carbonitrile]
60 | Cc1ccc2c(c1)c(N1CCC(Oc3ccccc3Cl)CC1)c(C#N)c(=O)n2C [Example 151, 4-[4-(2-chlorophenoxy)piperidin-1-yl]-1,6-dimethyl-2-oxo-1,2-dihydroquinoline-3-carbonitrile]
8.6 | Cn1c(=O)c(C#N)c(N2CCC(Oc3cccc(F)c3)CC2)c2ccccc21 [Example 7, 4-[4-(3-fluorophenoxy)piperidin-1-yl]-1-methyl-2-oxo-1,2-dihydroquinoline-3-carbonitrile]
14 | Cn1c(=O)c(C#N)c(N2CCC(Oc3cccc(C(F)(F)F)c3)CC2)c2ccccc21 [Example 15, 1-methyl-2-oxo-4-{4-[3-(trifluoromethyl)phenoxy]piperidin-1-yl}-1,2-dihydroquinoline-3-carbonitrile]
5.3 | Cn1c(=O)c(C#N)c(N2CCC(OCc3ccc(F)cc3)CC2)c2ccccc21 [Example 110, 4-{4-[(4-fluorophenyl)methoxy]piperidin-1-yl}-1-methyl-2-oxo-1,2-dihydroquinoline-3-carbonitrile]
10 | Cc1cccc(COC2CCN(c3c(C#N)c(=O)n(C)c4ccccc34)CC2)c1 [Example 108, 1-methyl-4-{4-[(3-methylphenyl)methoxy]piperidin-1-yl}-2-oxo-1,2-dihydroquinoline-3-carbonitrile]
181 | Cn1c(=O)c(C#N)c(N2CCC(Oc3ccc(N4CCCCC4=O)cc3)CC2)c2ccccc21 [Example 23, 1-methyl-2-oxo-4-{4-[4-(2-oxopiperidin-1-yl)phenoxy]piperidin-1-yl}-1,2-dihydroquinoline-3-carbonitrile]
50 | Cc1ccc2c(c1)c(N1CCC(Oc3ccccc3C)CC1)c(C#N)c(=O)n2C [Example 150, 1,6-dimethyl-4-[4-(2-methylphenoxy)piperidin-1-yl]-2-oxo-1,2-dihydroquinoline-3-carbonitrile]
7.7 | Cc1ccc2c(c1)c(N1CCC(Oc3ccc(F)cc3)CC1)c(C#N)c(=O)n2C [Example 141, 4-[4-(4-fluorophenoxy)piperidin-1-yl]-1,6-dimethyl-2-oxo-1,2-dihydroquinoline-3-carbonitrile]
45 | Cn1c(=O)c(C#N)c(N2CCC(Oc3ccc(-n4cncn4)cc3)CC2)c2ccccc21 [Example 17, 1-methyl-2-oxo-4-{4-[4-(1H-1,2,4-triazol-1-yl)phenoxy]piperidin-1-yl}-1,2-dihydroquinoline-3-carbonitrile]
32 | COc1ccc(OC2CCN(c3c(C#N)c(=O)n(C)c4ccccc34)CC2)cc1 [Example 46, 4-[4-(4-methoxyphenoxy)piperidin-1-yl]-1-methyl-2-oxo-1,2-dihydroquinoline-3-carbonitrile]
1.4 | Cn1c(=O)c(C#N)c(N2CCC(Sc3ccccc3)CC2)c2cc(Br)ccc21 [Example 140, 6-bromo-1-methyl-2-oxo-4-[4-(phenylsulfanyl)piperidin-1-yl]-1,2-dihydroquinoline-3-carbonitrile]
415 | CN(C)C(=O)c1ccc(OC2CCN(c3c(C#N)c(=O)n(C)c4ccccc34)CC2)cc1 [Example 26, 4-{[1-(3-cyano-1-methyl-2-oxo-1,2-dihydroquinolin-4-yl)piperidin-4-yl]oxy}-N,N-dimethylbenzamide]
15 | Cn1c(=O)c(C#N)c(N2CCC(Cc3ccc(C#N)cc3)CC2)c2ccccc21 [Example 95, 4-{4-[(4-cyanophenyl)methyl]piperidin-1-yl}-1-methyl-2-oxo-1,2-dihydroquinoline-3-carbonitrile]
4.7 | COc1ccc2c(N3CCC(Oc4ccccc4)CC3)c(C#N)c(=O)n(C)c2c1 [Example 89, 7-methoxy-1-methyl-2-oxo-4-(4-phenoxypiperidin-1-yl)-1,2-dihydroquinoline-3-carbonitrile]
